In patent US12590099B2, “Inhibitors of histone deacetylase useful for the treatment or prevention of HIV infection” (Merck Sharp & Dohme LLC, priority 2018, dated 2026):
Like-named read-outs stand apart in the source and are kept apart here.

Experiments:
[1] = target: T1, Recombinant human HDAC1 (Homo sapiens, UniProt Q13547); assay: Human HDAC enzyme inhibitor Fluor-de-Lys assay, HDAC1; format: biochemical; conditions: recombinant human HDAC1, Fluor-de-Lys assay
T1 construct: FLAG (C); made in house
T1 sequence (Q13547 whole entry): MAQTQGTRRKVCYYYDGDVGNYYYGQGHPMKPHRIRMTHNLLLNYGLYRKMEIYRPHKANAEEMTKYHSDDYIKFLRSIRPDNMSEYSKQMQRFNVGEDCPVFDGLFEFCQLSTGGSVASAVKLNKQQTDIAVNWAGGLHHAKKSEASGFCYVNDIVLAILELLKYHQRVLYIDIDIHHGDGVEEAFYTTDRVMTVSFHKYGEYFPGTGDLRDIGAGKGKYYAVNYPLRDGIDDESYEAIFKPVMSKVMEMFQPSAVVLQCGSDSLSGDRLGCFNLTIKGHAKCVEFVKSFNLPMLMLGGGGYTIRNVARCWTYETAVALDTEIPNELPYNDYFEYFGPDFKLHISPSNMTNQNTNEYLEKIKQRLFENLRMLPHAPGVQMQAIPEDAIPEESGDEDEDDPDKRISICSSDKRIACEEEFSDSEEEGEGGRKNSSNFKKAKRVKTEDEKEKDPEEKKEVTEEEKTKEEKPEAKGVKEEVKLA
Method in brief: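 Fluor-de-Lys format at room temperature (23° C.): compounds titrated 10-point, 1:3, preincubated with HDAC before substrate addition; HDAC1 run at 0.3 nM enzyme with 20 μM BML-KI104. Developer with excess HDAC inhibitor ends the reaction, and trypsin-liberated AMC fluorescence is the read-out.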

[2] = target: T2, Recombinant human HDAC8 (Homo sapiens, UniProt Q9BY41); assay: Human HDAC enzyme inhibitor Fluor-de-Lys assay, HDAC8; format: biochemical; conditions: recombinant human HDAC8, Fluor-de-Lys assay
T2 construct: purchased Enzo Life Sciences BML-SE145-0100
T2 sequence (Q9BY41 1-377): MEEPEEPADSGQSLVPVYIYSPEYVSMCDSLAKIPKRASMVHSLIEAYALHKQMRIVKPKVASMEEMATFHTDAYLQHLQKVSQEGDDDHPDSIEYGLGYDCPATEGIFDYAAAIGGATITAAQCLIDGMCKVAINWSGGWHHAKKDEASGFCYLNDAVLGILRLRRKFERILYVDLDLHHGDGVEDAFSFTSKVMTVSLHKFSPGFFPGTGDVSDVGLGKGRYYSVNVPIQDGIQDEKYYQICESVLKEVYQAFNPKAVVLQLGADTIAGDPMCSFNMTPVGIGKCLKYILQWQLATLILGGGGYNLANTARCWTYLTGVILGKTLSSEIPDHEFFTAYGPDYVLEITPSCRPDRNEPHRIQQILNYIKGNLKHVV

[3] = target: T3, Recombinant human HDAC2 (Homo sapiens, UniProt Q92769); assay: Human HDAC enzyme inhibitor Fluor-de-Lys assay, HDAC2; format: biochemical; conditions: recombinant human HDAC2, Fluor-de-Lys assay
T3 construct: Full length human HDAC2-FLAG was expressed in baculovirus infected Sf9 cells; FLAG (C); made in house; host or cells: Sf9 (baculovirus)
T3 sequence (Q92769 whole entry): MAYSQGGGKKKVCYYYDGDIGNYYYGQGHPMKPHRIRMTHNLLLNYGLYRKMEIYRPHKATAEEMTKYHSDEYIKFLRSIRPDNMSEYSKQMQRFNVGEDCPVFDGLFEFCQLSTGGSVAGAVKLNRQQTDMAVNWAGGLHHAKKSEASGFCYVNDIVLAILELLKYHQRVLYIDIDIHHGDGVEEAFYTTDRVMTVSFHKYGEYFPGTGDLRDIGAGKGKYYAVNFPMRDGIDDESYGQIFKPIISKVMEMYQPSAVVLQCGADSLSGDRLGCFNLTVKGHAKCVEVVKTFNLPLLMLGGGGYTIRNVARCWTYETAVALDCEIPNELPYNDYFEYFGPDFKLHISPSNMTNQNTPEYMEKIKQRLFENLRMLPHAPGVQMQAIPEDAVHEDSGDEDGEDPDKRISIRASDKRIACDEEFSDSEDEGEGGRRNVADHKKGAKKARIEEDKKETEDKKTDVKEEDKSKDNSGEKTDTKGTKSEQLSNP
Method in brief: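 Fluor-de-Lys format at room temperature (23° C.): compounds titrated 10-point, 1:3, preincubated with HDAC before substrate addition. Developer with excess HDAC inhibitor ends the reaction, and trypsin-liberated AMC fluorescence is the read-out.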

[4] = system: KARN cells (Jurkat 2C4); assay: cells; format: cell-based; conditions: Homo sapiens, Jurkat, luciferase induction, 100% = 2 μM SAHA
Method in brief: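 Jurkat 2C4 (KARN) cells dosed with test compounds up to 40 μM final, 0.4% DMSO, overnight at 5% CO2; luciferase read by Steady-Glo luminescence after 10 min at room temperature. DMSO set as 0% and 2 μM SAHA as 100% induction; 4-parameter fit of percent activation.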

[5] = read-out: Karn EC50 (nM) 0.1% NHS, 0.1% normal human serum
[6] = read-out: Karn EC50 (nM) 5% NHS, 5% normal human serum

Row | SMILES | IC50 [1] [nM] | IC50 [2] [nM] | IC50 [3] [nM] | EC50 [4, 5] [nM] | EC50 [4, 6] [nM]
1 | CCC(=O)CCCCC[C@H](NC(=O)[C@H]1CC12CCN(C)CC2)c1ncc(-c2ccc(F)cc2F)[nH]1 [Compound 289] | 63.1 | 3750 | 259 | 1060 | 1090
2 | CCC(=O)CCCCC[C@H](NC(=O)[C@H]1CC12CCN(C)CC2)c1ncc(-c2ccccc2F)[nH]1 [Compound 290] | 15.4 | 5230 | 73.5 | 415 | 519
3 | CCC(=O)CCCCC[C@H](NC(=O)CC1CC2(CNC2)C1)c1ncc(-c2ccccc2)[nH]1 [Compound 297] | 27.9 | 8460 | 120 | 5840 | 15800
4 | CCC(=O)CCCCC[C@@H](NC(=O)C1CCC2(CC1)CNC2)c1ncc(-c2ccccc2)[nH]1 [Compound 298] | 36.5 | 1690 | 144 | 7010 | 11800
5 | CCC(=O)CCCCC[C@H](NC(=O)C1CCC2(CC1)CNC2)c1nnc(-c2cc3ccccc3nc2OC)o1 [Compound 299] | 12.2 | 27800 | 35.8 | 7000 | 9270
6 | CCC(=O)CCCCC[C@H](NC(=O)CC1CC2(C1)CN(C(C)=O)C2)c1ncc(-c2ccccc2)[nH]1 [Compound 300, (S)-2-(2-acetyl-2-azaspiro[3.3]heptan-6-yl)-N-(7-oxo-1-(5-phenyl-1H-imidazol-2-yl)nonyl)acetamide] | 199 | 11100 | 802 | 9210 | 10200
7 | CCC(=O)CCCCC[C@H](NC(=O)CC1CC2(CNC2)C1)c1nnc(-c2cc3ccccc3nc2OC)o1 [Compound 301] | 24.6 | 29500 | 77.6 | 24200 | –
8 | CCC(=O)CCCCC[C@H](NC(=O)C1CC12CCNCC2)c1nnc(-c2cc3ccccc3nc2OC)o1 (stereo partly drawn) [Compound 303] | 17.2 | 29200 | 40.5 | 2430 | 4260
9 | CCC(=O)CCCCC[C@H](NC(=O)[C@@H]1CC12CCN(C)CC2)c1nnc(-c2cc3ccccc3nc2OC)o1 [Compound 305] | 47.3 | > 45000 | 160 | 2200 | 3090
10 | CCC(=O)CCCCC[C@H](NC(=O)[C@H]1CC12CCN(C)CC2)c1nnc(-c2cc3ccccc3nc2OC)o1 [Compound 306] | 12.9 | > 45000 | 58.2 | 690 | 691
11 | CCC(=O)CCCCC[C@H](NC(=O)CC1CC2(C1)CN(C)C2)c1ncc(-c2ccccc2)[nH]1 [Compound 307] | 62.9 | 13500 | 617 | 3700 | 2570
12 | CCC(=O)CCCCC[C@H](NC(=O)CC1CC2(C1)CN(C)C2)c1nnc(-c2cc3ccccc3nc2OC)o1 [Compound 308] | 27.3 | > 45000 | 97.7 | 2690 | 3700
13 | CCC(=O)CCCCC[C@@H](NC(=O)C1CCC2(CC1)CN(C)C2)c1ncc(-c2ccccc2)[nH]1 [Compound 310] | 33 | 6500 | 167 | 1490 | 1920
14 | CCC(=O)CCCCC[C@H](NC(=O)CC1CC2(C1)CN(C)C2)c1ncc(-c2cc3ccccc3nc2OC)[nH]1 [Compound 314] | 1.03 | 2570 | 5.1 | 131 | 811
15 | CCC(=O)CCCCC[C@H](NC(=O)C1NC(=O)CC12CN(C)C2)c1ncc(-c2cc3ccccc3nc2OC)[nH]1 (stereo partly drawn) [Compound 317] | 0.87 | 4890 | 5 | 591 | 1720
16 | CCC(=O)CCCCC[C@H](NC(=O)CC1CC2(C1)CN(C)C2)c1ncc(-c2cc3ccccc3nc2O)[nH]1 [Compound 326] | 3.27 | > 4500 | 9 | 2400 | 3820
17 | CCC(=O)CCCCC[C@H](NC(=O)[C@H]1CC12CCN(CC)CC2)c1ncc(-c2cnc3cc(C(F)(F)F)ccc3c2)[nH]1 [Compound 341] | 0.42 | 11900 | 2.5 | 44 | 70
18 | CCC(=O)CCCCC[C@H](NC(=O)[C@H]1CC12CCN(C)CC2)c1ncc(-c2ccc3ccc(C)nc3c2F)[nH]1 [Compound 354] | 1.82 | 798 | 11.3 | 264 | 295
19 | CCC(=O)CCCCCC(NC(=O)C1CCC2(CC1)OC(=O)c1ccncc12)c1nnc(-c2cc3ccccc3nc2OC)o1 (stereo not drawn) [Compound 363] | 85.5 | 25500 | 234 | 2080 | 4810
20 | CCC(=O)CCCCCC(NC(=O)C1CCC2(CC1)OC(=O)c1cnccc12)c1nnc(-c2cc3ccccc3nc2OC)o1 (stereo not drawn) [Compound 364] | 63 | 32100 | 248 | 1770 | 4310
